Inconclusive results and toxic doses are left out. No stated cut-off is given here; in the data, active means T/C of 150% or more; inactive means T/C below 125%.
Test system: L1210 leukemia ip in BDF1 mice, survival T/C
Assay: NCI In Vivo Anticancer Drug Screen. Data for tumor model L1210 Leukemia (intraperitoneal) in B6D2F1 (BDF1) mice
Conditions: higher = longer survival
Summary of the method: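 Value reflects the ratio of survival in compound-treated mice to survival in vehicle-treated controls, with both groups carrying the same transplanted tumor.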

[1] = endpoint: mean survival time, dose: 100.0 mg/kg/injection, schedule: Q01DX009 (ip), vehicle: saline with Tween-80
[2] = endpoint: mean survival time, dose: 100.0 mg/kg/injection, schedule: Q04DX003 (ip), vehicle: saline with Tween-80
[3] = endpoint: mean survival time, dose: 200.0 mg/kg/injection, schedule: Q01DX009 (ip), vehicle: saline with Tween-80
[4] = endpoint: mean survival time, dose: 200.0 mg/kg/injection, schedule: Q04DX003 (ip), vehicle: saline with Tween-80
[5] = endpoint: mean survival time, dose: 100.0 mg/kg/injection, schedule: Q01DX001 (ip), vehicle: saline with Tween-80
[6] = endpoint: mean survival time, dose: 200.0 mg/kg/injection, schedule: Q01DX001 (ip), vehicle: saline with Tween-80
[7] = endpoint: mean survival time, dose: 400.0 mg/kg/injection, schedule: Q01DX001 (ip), vehicle: saline with Tween-80
[8] = endpoint: mean survival time, dose: 100.0 mg/kg/injection, schedule: Q04DX002 (ip), vehicle: Klucel (hydroxypropylcellulose) (HPC)
[9] = endpoint: mean survival time, dose: 200.0 mg/kg/injection, schedule: Q04DX002 (ip), vehicle: Klucel (hydroxypropylcellulose) (HPC)
[10] = endpoint: mean survival time, dose: 400.0 mg/kg/injection, schedule: Q04DX002 (ip), vehicle: Klucel (hydroxypropylcellulose) (HPC)
[11] = endpoint: mean survival time, dose: 100.0 mg/kg/injection, schedule: Q01DX009 (ip), vehicle: Klucel (hydroxypropylcellulose) (HPC)
[12] = endpoint: mean survival time, dose: 200.0 mg/kg/injection, schedule: Q01DX009 (ip), vehicle: Klucel (hydroxypropylcellulose) (HPC)
[13] = endpoint: mean survival time, dose: 400.0 mg/kg/injection, schedule: Q01DX009 (ip), vehicle: Klucel (hydroxypropylcellulose) (HPC)
[14] = endpoint: mean survival time, dose: 100.0 mg/kg/injection, schedule: Q01DX001 (ip), vehicle: saline
[15] = endpoint: mean survival time, dose: 100.0 mg/kg/injection, schedule: Q04DX003 (ip), vehicle: saline
[16] = endpoint: mean survival time, dose: 200.0 mg/kg/injection, schedule: Q04DX003 (ip), vehicle: saline
[17] = endpoint: mean survival time, dose: 10.0 mg/kg/injection, schedule: Q01DX001 (ip), vehicle: saline
[18] = endpoint: mean survival time, dose: 20.0 mg/kg/injection, schedule: Q01DX001 (ip), vehicle: saline

Measured: T/C

Cn1nc(NC(=O)C(F)(F)F)c2nccnc21
inactive: [1] 95 % of control | [2] 100 % of control | [3] 94 % of control | [4] 101 % of control | endpoint: mean survival time, dose: 400.0 mg/kg/injection, schedule: Q04DX003 (ip), vehicle: saline with Tween-80 108 % of control

CN(C)Cc1cc(C(C)(C)C)cc(C2CCCCC2)c1O
inactive: [1] 100 % of control | [3] 94 % of control | endpoint: mean survival time, dose: 400.0 mg/kg/injection, schedule: Q01DX009 (ip), vehicle: saline with Tween-80 107 % of control

O=C(CSc1cc(Cl)c(Cl)cc1Cl)Nc1cccc(Cl)c1
inactive: [5] 95 % of control | [6] 98 % of control | [7] 90 % of control

O=C(O)C(Nc1ccc(Oc2ccc(NC(C(=O)O)c3ccccc3)cc2)cc1)c1ccccc1 (stereo not given)
inactive: [8] 100 % of control | [9] 100 % of control | [10] 100 % of control

Cc1ccc(N=Nc2ccc(N(C)C)cc2)cc1
inactive: [11] 90 % of control | [12] 92 % of control | [13] 90 % of control

CCCCCC(OCC)(OCC)OCC
inactive: [11] 95 % of control | endpoint: mean survival time, dose: 100.0 mg/kg/injection, schedule: Q04DX003 (ip), vehicle: Klucel (hydroxypropylcellulose) (HPC) 104 % of control | [12] 96 % of control | endpoint: mean survival time, dose: 200.0 mg/kg/injection, schedule: Q04DX003 (ip), vehicle: Klucel (hydroxypropylcellulose) (HPC) 93 % of control | [13] 92 % of control | endpoint: mean survival time, dose: 400.0 mg/kg/injection, schedule: Q04DX003 (ip), vehicle: Klucel (hydroxypropylcellulose) (HPC) 93 % of control

COC1C(OC(=O)/C=C/C=C/C=C/C=C/C(=O)O)CCC2(CO2)C1C1(C)OC1CC=C(C)C (stereo not given)
inactive: endpoint: mean survival time, dose: 2.5 mg/kg/injection, schedule: Q01DX Z (ip), vehicle: methylcellulose (MC) 115 % of control | endpoint: mean survival time, dose: 5.0 mg/kg/injection, schedule: Q01DX Z (ip), vehicle: methylcellulose (MC) 110 % of control | endpoint: mean survival time, dose: 10.0 mg/kg/injection, schedule: Q01DX Z (ip), vehicle: methylcellulose (MC) 115 % of control | endpoint: mean survival time, dose: 10.0 mg/kg/injection, schedule: Q01DX Z (ip), vehicle: saline 109 % of control | endpoint: mean survival time, dose: 20.0 mg/kg/injection, schedule: Q01DX Z (ip), vehicle: methylcellulose (MC) 118 % of control | endpoint: mean survival time, dose: 20.0 mg/kg/injection, schedule: Q01DX Z (ip), vehicle: saline 115 % of control | endpoint: mean survival time, dose: 40.0 mg/kg/injection, schedule: Q01DX Z (ip), vehicle: methylcellulose (MC) 121 % of control | endpoint: mean survival time, dose: 40.0 mg/kg/injection, schedule: Q01DX Z (ip), vehicle: saline 123 % of control | endpoint: mean survival time, dose: 50.0 mg/kg/injection, schedule: Q01DX009 (ip), vehicle: saline 101 % of control | endpoint: mean survival time, dose: 50.0 mg/kg/injection, schedule: Q04DX003 (ip), vehicle: saline 116 % of control | endpoint: mean survival time, dose: 80.0 mg/kg/injection, schedule: Q01DX Z (ip), vehicle: saline 120 % of control | [14] 93 % of control | endpoint: mean survival time, dose: 100.0 mg/kg/injection, schedule: Q01DX009 (ip), vehicle: saline 101 % of control | [15] 93 % of control | endpoint: mean survival time, dose: 200.0 mg/kg/injection, schedule: Q01DX001 (ip), vehicle: saline 93 % of control | endpoint: mean survival time, dose: 200.0 mg/kg/injection, schedule: Q01DX009 (ip), vehicle: saline 106 % of control | [16] 98 % of control

NC(Cc1cc(I)c(Oc2cc(I)c(O)c(I)c2)c(I)c1)C(=O)O (stereo not given)
inactive: endpoint: median survival time, dose: 0.63 mg/kg/injection, schedule: Q01DX009 (ip), vehicle: saline 98 % of control | endpoint: median survival time, dose: 2.5 mg/kg/injection, schedule: Q01DX009 (ip), vehicle: saline 92 % of control | endpoint: median survival time, dose: 10.0 mg/kg/injection, schedule: Q01DX009 (ip), vehicle: saline 88 % of control | endpoint: median survival time, dose: 40.0 mg/kg/injection, schedule: Q01DX009 (ip), vehicle: saline 93 % of control

C=CCN1CCCC1=O
inactive: [15] 95 % of control | [16] 96 % of control | endpoint: mean survival time, dose: 400.0 mg/kg/injection, schedule: Q04DX003 (ip), vehicle: saline 95 % of control

Nc1ncnc2c1c(Br)cn2C1OC(CO)C(O)C1O (stereo not given)
inactive: endpoint: mean survival time, dose: 5.0 mg/kg/injection, schedule: Q01DX001 (ip), vehicle: carboxymethylcellulose (CMC) 106 % of control

CCO/N=C(/C)C(C)SC#N (stereo not given)
inactive: [17] 97 % of control | [18] 105 % of control

COc1cc2c3c(c1)/C(=N\N)CCN3CCC2
inactive: endpoint: mean survival time, dose: 12.5 mg/kg/injection, schedule: Q01DX009 (ip), vehicle: saline with Tween-80 90 % of control | endpoint: mean survival time, dose: 25.0 mg/kg/injection, schedule: Q01DX009 (ip), vehicle: saline with Tween-80 94 % of control | endpoint: mean survival time, dose: 50.0 mg/kg/injection, schedule: Q01DX009 (ip), vehicle: saline with Tween-80 92 % of control | [2] 92 % of control | [3] 99 % of control | [4] 103 % of control

CC(C)C(=O)CCC1CCCCC1
inactive: [5] 100 % of control | [6] 100 % of control | [7] 97 % of control

CC12CC3CC(C)(C1)CC(SC(=N)N)(C3)C2
inactive: endpoint: mean survival time, dose: 10.0 mg/kg/injection, schedule: Q04DX002 (ip), vehicle: Klucel (hydroxypropylcellulose) (HPC) 97 % of control | endpoint: mean survival time, dose: 20.0 mg/kg/injection, schedule: Q04DX002 (ip), vehicle: Klucel (hydroxypropylcellulose) (HPC) 102 % of control | endpoint: mean survival time, dose: 40.0 mg/kg/injection, schedule: Q04DX002 (ip), vehicle: Klucel (hydroxypropylcellulose) (HPC) 105 % of control

O=C1NC(=O)C(CCI)(CCI)C(=O)N1
inactive: endpoint: mean survival time, dose: 100.0 mg/kg/injection, schedule: Q01DX001 (ip), vehicle: carboxymethylcellulose (CMC) 103 % of control | endpoint: mean survival time, dose: 200.0 mg/kg/injection, schedule: Q01DX001 (ip), vehicle: carboxymethylcellulose (CMC) 98 % of control | endpoint: mean survival time, dose: 400.0 mg/kg/injection, schedule: Q01DX001 (ip), vehicle: carboxymethylcellulose (CMC) 109 % of control

CC1N=C(c2ccccc2)C2(c3ccccc3)C(C)N12 (stereo not given)
inactive: endpoint: mean survival time, dose: 100.0 mg/kg/injection, schedule: Q01DX001 (ip), vehicle: Klucel (hydroxypropylcellulose) (HPC) 97 % of control | endpoint: mean survival time, dose: 200.0 mg/kg/injection, schedule: Q01DX001 (ip), vehicle: Klucel (hydroxypropylcellulose) (HPC) 94 % of control

CC(C)(C)CC#N
inactive: endpoint: mean survival time, dose: 5.0 mg/kg/injection, schedule: Q01DX001 (ip), vehicle: saline 100 % of control | [17] 106 % of control | [18] 102 % of control | endpoint: mean survival time, dose: 40.0 mg/kg/injection, schedule: Q01DX001 (ip), vehicle: saline 106 % of control | endpoint: mean survival time, dose: 80.0 mg/kg/injection, schedule: Q01DX001 (ip), vehicle: saline 100 % of control | [14] 94 % of control

N#CSCCSC#N
inactive: endpoint: mean survival time, dose: 10.0 mg/kg/injection, schedule: Q04DX003 (ip), vehicle: Klucel (hydroxypropylcellulose) (HPC) 99 % of control

COc1cccc(C(N)=O)c1
inactive: [8] 97 % of control | [9] 97 % of control | [10] 104 % of control

CCCCCCCCCCC(CCCCCCCCCC)CC1CCCC1
inactive: endpoint: mean survival time, dose: 75.0 mg/kg/injection, schedule: Q01DX001 (ip), vehicle: saline with Tween-80 100 % of control | endpoint: mean survival time, dose: 150.0 mg/kg/injection, schedule: Q01DX001 (ip), vehicle: saline with Tween-80 103 % of control | endpoint: mean survival time, dose: 300.0 mg/kg/injection, schedule: Q01DX001 (ip), vehicle: saline with Tween-80 97 % of control

Reference: PubChem BioAssay AID248 (DTP/NCI, 2004)
